Measured values as given in patent publication US20090136979A1, “Class IIA Histone Deacetylase (HDAC) Substrate” (ISTITUTO DI RICERCHE DI BIOLOGIA MOLECOLARE P. ANG, priority 2005, published 2009).
Blank lines part the entries; values can stand above or below the compound they belong to.

Tests used:
HDAC4-FLAG [1] = molecular target: T1, HDAC4-FLAG (Homo sapiens, UniProt P56524); assay type: binding; conditions: cross-linking assay
T1 construct: the full length HDAC4protein (HDAC4-FLAG) was also analysed; FLAG (C); made in house
T1 sequence (P56524 whole entry): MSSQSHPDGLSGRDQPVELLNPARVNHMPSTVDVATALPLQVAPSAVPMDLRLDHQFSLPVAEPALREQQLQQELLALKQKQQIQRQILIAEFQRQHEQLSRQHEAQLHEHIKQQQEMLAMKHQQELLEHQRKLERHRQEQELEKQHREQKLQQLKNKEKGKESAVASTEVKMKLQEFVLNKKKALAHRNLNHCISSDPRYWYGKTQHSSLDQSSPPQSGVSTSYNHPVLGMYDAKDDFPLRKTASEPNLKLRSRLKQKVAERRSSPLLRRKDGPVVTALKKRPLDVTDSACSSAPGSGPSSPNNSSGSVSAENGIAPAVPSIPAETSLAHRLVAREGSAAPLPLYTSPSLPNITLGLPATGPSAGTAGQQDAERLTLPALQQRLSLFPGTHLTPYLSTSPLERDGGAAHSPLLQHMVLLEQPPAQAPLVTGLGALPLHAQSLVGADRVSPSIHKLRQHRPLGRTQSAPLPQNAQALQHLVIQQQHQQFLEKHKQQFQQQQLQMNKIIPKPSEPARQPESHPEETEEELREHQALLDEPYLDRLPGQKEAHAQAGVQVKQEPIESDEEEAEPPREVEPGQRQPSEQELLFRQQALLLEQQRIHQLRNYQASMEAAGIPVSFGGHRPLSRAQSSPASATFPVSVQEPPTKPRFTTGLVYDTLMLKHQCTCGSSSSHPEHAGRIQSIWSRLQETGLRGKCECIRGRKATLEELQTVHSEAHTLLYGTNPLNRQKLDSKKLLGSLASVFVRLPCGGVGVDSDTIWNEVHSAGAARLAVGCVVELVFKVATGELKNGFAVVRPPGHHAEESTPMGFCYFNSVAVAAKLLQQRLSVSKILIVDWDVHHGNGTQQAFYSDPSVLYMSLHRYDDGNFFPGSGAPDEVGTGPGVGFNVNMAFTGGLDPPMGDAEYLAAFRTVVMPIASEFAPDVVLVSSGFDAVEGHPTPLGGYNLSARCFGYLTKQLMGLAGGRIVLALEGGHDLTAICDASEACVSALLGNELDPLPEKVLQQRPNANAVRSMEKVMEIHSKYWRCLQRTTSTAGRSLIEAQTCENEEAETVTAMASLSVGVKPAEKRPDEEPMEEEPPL

HDAC4-CD [2] = molecular target: T2, HDAC4-CD (Homo sapiens, UniProt P56524); assay: Inhibition of HDAC4-CD activity on Lys-Trifluoro substrate; assay type: biochemical; conditions: HDAC4-CD 0.5 nM, FIG. 6
T2 construct: The HDAC4 C-terminal region from T-653 to L-1084; 6xHis; made in house; host or cells: E. coli BL21 Star (DE3)
T2 sequence (P56524 653-1084): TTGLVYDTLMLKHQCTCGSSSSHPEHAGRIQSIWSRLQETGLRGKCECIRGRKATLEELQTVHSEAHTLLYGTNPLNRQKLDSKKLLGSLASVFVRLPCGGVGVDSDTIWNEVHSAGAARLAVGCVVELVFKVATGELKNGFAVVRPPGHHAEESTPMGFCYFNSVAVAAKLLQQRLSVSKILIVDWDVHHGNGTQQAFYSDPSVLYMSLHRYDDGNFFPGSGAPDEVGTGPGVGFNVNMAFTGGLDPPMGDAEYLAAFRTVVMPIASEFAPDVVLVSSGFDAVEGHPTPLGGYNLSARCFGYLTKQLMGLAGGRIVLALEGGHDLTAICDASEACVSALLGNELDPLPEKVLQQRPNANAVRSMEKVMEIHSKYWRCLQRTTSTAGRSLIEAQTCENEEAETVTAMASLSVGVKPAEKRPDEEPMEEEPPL

HDAC from rat liver = conditions: cited from earlier work
HDAC8 [3] = molecular target: T3, HDAC8 (Homo sapiens, UniProt Q9BY41); assay: Activity on Boc-L-Lys(ε-trifluoroacetyl)-MCA compared with Biomol standard substrate, HDAC8; assay type: biochemical; conditions: HDAC8, FIG. 5
T3 sequence (Q9BY41 1-377): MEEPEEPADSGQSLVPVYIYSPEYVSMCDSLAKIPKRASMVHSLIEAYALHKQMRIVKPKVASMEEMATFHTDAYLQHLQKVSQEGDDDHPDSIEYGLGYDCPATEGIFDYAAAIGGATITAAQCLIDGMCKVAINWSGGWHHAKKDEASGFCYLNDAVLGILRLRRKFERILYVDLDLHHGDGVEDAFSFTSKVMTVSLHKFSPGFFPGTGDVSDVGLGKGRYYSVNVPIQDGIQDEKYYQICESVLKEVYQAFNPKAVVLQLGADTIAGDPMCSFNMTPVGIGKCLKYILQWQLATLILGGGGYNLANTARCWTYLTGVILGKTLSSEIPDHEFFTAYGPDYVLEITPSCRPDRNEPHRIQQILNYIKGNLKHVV
From the text: (§1) The activities measured on Boc-L-Lys(ε-trifluoroacetyl)-MCA were compared with activities on the Biomol standard substrate (not shown).

HDAC3 = HDAC3 (Homo sapiens, UniProt O15379); assay: Activity on Boc-L-Lys(ε-trifluoroacetyl)-MCA compared with Biomol standard substrate, HDAC3; assay type: biochemical; conditions: HDAC3, FIG. 5
Sequence of HDAC3 (O15379 whole entry): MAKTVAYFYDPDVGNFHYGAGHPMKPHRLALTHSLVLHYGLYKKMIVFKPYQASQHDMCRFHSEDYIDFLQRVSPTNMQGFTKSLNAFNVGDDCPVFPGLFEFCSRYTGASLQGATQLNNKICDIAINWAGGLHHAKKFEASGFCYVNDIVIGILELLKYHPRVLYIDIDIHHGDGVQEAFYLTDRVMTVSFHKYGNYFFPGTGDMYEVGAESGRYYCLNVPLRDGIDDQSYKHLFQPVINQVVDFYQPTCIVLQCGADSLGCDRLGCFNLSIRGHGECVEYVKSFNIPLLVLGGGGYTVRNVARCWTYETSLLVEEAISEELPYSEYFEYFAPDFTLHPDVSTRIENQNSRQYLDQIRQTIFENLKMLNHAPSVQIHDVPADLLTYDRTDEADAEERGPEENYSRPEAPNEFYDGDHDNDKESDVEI
Sequence of HDAC3 (Q9Y618 whole entry partner): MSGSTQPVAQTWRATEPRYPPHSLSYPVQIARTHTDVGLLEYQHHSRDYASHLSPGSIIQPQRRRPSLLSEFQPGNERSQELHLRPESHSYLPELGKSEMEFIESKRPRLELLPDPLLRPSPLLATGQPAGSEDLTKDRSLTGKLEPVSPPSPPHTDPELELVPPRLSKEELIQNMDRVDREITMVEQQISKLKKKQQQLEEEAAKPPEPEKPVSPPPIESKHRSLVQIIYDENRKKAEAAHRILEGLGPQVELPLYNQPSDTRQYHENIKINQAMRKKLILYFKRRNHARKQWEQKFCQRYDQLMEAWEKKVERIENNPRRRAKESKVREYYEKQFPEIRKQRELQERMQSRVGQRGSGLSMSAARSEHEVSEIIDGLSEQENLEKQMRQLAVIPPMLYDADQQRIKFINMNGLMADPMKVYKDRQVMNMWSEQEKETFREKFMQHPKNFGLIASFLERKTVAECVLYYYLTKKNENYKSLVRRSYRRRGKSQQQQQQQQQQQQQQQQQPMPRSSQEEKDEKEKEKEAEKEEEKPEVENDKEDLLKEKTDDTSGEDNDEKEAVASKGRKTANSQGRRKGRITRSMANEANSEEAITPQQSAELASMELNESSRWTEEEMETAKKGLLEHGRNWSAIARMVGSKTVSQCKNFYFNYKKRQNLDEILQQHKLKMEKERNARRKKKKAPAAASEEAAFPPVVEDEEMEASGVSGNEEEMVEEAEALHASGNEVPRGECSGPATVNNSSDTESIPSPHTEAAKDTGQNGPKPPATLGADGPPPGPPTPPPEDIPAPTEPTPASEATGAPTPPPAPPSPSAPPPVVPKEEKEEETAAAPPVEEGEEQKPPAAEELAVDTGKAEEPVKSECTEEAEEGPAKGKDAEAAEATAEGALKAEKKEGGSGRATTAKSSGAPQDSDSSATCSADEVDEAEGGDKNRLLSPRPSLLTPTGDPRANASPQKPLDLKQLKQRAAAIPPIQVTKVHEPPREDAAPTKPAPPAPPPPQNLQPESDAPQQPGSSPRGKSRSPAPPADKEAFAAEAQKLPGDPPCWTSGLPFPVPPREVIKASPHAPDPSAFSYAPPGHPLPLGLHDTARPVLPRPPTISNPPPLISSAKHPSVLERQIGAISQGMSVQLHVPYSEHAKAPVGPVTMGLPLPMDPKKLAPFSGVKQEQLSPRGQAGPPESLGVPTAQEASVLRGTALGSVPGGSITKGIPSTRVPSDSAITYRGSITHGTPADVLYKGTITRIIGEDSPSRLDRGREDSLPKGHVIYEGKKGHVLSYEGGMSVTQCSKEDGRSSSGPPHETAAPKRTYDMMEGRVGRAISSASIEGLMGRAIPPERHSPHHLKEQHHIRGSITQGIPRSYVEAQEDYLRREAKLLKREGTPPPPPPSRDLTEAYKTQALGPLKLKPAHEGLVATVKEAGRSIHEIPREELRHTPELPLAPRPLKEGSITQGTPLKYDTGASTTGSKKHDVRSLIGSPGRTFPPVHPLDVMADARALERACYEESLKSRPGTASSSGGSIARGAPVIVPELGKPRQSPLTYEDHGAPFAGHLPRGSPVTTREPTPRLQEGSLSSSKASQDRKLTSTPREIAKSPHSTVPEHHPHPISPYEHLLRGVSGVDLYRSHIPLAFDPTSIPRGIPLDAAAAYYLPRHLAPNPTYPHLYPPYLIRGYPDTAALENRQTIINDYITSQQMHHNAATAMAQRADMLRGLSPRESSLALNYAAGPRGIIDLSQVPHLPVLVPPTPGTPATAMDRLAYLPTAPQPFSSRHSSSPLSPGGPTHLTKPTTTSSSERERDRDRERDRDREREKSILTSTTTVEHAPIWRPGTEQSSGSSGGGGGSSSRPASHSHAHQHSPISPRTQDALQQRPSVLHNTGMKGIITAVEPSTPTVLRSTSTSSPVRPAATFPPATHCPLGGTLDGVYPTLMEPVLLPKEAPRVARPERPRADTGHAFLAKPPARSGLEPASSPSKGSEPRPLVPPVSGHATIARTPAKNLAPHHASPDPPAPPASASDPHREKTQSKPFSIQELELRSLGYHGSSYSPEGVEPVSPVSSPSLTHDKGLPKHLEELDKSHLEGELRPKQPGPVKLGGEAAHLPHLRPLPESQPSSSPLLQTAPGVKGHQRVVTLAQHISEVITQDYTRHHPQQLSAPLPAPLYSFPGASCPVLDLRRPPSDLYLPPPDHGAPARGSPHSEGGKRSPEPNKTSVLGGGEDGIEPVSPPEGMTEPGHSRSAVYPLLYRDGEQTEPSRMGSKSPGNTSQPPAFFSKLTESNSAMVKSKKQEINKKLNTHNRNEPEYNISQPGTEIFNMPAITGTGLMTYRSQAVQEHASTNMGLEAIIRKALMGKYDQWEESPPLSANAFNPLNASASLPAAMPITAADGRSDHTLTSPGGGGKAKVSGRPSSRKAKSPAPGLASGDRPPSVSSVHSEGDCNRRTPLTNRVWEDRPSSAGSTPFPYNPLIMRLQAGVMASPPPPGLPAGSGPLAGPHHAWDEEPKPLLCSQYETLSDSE
From the text: as §1

HDAC1 = HDAC1 (Homo sapiens, UniProt Q13547); assay: Activity on Boc-L-Lys(ε-trifluoroacetyl)-MCA compared with Biomol standard substrate, HDAC1; assay type: biochemical; conditions: HDAC1, FIG. 5
Sequence of HDAC1 (Q13547 whole entry): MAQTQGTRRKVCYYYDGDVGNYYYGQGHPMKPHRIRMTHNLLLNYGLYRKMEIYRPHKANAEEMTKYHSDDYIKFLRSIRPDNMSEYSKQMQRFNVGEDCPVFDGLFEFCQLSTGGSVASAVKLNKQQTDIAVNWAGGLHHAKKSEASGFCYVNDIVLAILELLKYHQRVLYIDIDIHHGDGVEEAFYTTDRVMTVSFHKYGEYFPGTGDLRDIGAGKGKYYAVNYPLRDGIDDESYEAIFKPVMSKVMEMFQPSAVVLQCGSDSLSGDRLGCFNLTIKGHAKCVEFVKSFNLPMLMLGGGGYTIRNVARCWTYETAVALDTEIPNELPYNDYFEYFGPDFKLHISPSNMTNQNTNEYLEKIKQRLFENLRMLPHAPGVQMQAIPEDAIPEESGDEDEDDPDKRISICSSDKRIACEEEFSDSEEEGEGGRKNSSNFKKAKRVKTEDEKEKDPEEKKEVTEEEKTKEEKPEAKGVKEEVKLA
From the text: as §1

HDAC4-CD [4] = molecular target: T2, HDAC4-CD; assay: Activity on Boc-L-Lys(ε-trifluoroacetyl)-MCA compared with Biomol standard substrate, HDAC4-CD; assay type: biochemical; conditions: FIG. 5
From the text: as §1

HDAC8 [5] = molecular target: T3, HDAC8; conditions: substrate of (recombinant) human HDAC8; cited from earlier work
HDAC6 = molecular target: T4, HDAC6 (Homo sapiens, UniProt Q9UBN7); assay: Activity on Boc-L-Lys(ε-trifluoroacetyl)-MCA compared with Biomol standard substrate, HDAC6; assay type: biochemical; conditions: HDAC6, FIG. 5
T4 sequence (Q9UBN7 1-1215): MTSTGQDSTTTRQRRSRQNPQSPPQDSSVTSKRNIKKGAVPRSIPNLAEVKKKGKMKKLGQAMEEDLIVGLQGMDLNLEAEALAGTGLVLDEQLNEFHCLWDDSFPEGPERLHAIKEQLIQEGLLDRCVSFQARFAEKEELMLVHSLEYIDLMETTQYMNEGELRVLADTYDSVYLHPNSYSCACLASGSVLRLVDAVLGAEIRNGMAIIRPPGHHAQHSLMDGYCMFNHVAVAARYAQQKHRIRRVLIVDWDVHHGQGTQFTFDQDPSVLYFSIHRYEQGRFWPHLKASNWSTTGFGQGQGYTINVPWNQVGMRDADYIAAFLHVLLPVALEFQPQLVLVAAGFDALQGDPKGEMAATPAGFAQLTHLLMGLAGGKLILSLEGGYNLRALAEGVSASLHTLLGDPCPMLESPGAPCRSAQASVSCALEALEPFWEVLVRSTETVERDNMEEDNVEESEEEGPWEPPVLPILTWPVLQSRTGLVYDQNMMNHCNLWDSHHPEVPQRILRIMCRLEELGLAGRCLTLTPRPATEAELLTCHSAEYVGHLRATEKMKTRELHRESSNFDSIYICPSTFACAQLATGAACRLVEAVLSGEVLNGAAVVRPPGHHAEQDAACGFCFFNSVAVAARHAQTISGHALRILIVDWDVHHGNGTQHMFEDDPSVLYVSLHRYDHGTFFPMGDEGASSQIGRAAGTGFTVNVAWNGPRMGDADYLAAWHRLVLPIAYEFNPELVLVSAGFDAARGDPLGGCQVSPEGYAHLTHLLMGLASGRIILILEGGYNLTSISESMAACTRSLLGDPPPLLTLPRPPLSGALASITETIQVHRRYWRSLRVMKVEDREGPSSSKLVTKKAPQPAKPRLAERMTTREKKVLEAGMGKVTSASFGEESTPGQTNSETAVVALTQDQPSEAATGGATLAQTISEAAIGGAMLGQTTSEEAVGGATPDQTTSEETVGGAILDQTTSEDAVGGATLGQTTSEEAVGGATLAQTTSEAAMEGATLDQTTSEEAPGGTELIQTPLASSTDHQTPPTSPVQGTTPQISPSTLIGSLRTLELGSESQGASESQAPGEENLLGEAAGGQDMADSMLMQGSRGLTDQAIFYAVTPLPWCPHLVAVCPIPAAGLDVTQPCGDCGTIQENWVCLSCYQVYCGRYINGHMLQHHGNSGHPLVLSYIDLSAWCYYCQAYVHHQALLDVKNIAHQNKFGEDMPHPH
From the text: as §1

HDAC4-FLAG [6] = assay: Enzymatic activity of HDAC4-FLAG, inhibition (Biomol assay kit and histone substrates); assay type: biochemical; conditions: FIG. 2

inhibition of HDAC4-CD activity on Lys-Trifluoro substrate (HDAC4-CD [2]): inhibited
Compound: O=C(/C=C/c1ccc(CN(CCO)CCc2c[nH]c3ccccc23)cc1)NO [LAQ824]
binding to HDAC4-FLAG (HDAC4-FLAG [1]): able to significantly and specifically bind

Compound: CC(=O)NCCCC[C@H](NC(=O)OC(C)(C)C)C(=O)Nc1ccc2c(C)cc(=O)oc2c1 [Boc-L-Lys(ε-acetyl)-MCA, reference compound]
Km (HDAC from rat liver; substrate of HDAC from rat liver (mixture of HDAC1, 2 and 3)): 3.7 µM

enzyme activity on substrate compared with Biomol standard substrate (HDAC8 [3]): work better
enzyme activity on substrate compared with Biomol standard substrate (HDAC3): works with the same efficiency
enzyme activity on substrate compared with Biomol standard substrate (HDAC1): did not work
enzyme activity on substrate compared with Biomol standard substrate (HDAC4-CD [4]): work better
enzyme activity on substrate compared with Biomol standard substrate (HDAC6): did not work
Compound: Cc1cc(=O)oc2ccc(NC(=O)[C@H](CCCCNC(=O)C(F)(F)F)NC(=O)OC(C)(C)C)cc12 [Boc-L-Lys(ε-trifluoroacetyl)-MCA, tert-Butyl [(1S)-5-(trifluoroacetylamino)-1-[[(4-methyl-2-oxo-2H-1-benzopyran-6-yl)amino]carbonyl]pentyl]-carbamic Acid Ester]
conversion of substrate by rat liver HDAC (HDAC from rat liver; rat liver HDAC): did not convert
Km (HDAC8 [5]): 247 µM

Compound: Nc1ccccc1NC(=O)c1ccc(CNC(=O)OCc2cccnc2)cc1 [MS27-275]
inhibition constants (HDAC4-FLAG [6]): good inhibition constants
